pIC50: −log10 of the molar value.

This test deals with His-tagged KRAS G12D protein (Homo sapiens, UniProt P01116, G12D). The experiment in a line: KRAS G12D TR-FRET Assay. Format: binding. To be noted: TR-FRET binding. Here is the method: The His-tagged KRAS G12D protein (Amgen) was diluted to 20 nM in Assay Buffer (20 mM HEPES, pH 7.4, 10 mM MgCl2, 50 mM NaCl, 0.1% BSA, 0.01% Tween-20, 10 μM GDP) and 2 μL was added to the appropriate wells of the 384-well plate. The plate was incubated for 30 minutes at room temperature. Biotinylated KRPep-2d substrate (Amgen) was diluted to 20 nM in Assay Buffer and 2 μL was added to all wells and incubated for 1 hour at room temperature. Detection Reagent (0.4 nM LANCE Eu-W1024 Anti-6×His (Perkin Elmer AD0401), 5 nM streptavidin-d2 (Cisbio 610SADLA)) was prepared in Assay Buffer, then 4 μL was added to the plate and incubated for 1 hour at room temperature.
Chain of His-tagged KRAS G12D protein (P01116 1-188 isoform P01116-2 G12D): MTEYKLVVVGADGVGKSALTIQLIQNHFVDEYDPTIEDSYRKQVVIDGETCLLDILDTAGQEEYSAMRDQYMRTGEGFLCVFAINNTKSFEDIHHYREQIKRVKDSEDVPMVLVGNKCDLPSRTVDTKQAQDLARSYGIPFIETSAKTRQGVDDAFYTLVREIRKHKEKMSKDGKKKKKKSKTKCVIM
Background: In TR-FRET formats the signal depends on donor and acceptor labels being close together.
On to `Fc1cc2[nH]ncc2c2c1CCCCOC[C@H]1CCCCN(C1)c1nc(OC[C@@]34CCCN3C[C@H](F)C4)nc3c(F)c-2ncc13` (single isomer, unassigned) [Example 240], for which the pIC50 – broadly, the IC50 on a negative log10 scale, so that one unit is a factor of ten – is 8.52.
Molecule `Cc1cc2[nH]ncc2c2c1CCCCO[C@H](C)[C@H]1CN(CCO1)c1nc(OC[C@@]34CCCN3C[C@H](F)C4)nc3c(F)c-2ncc13` (single isomer, unassigned) [Example 241] showed a negative logarithm of the IC50 (pIC50) of 5.89. This pIC50 lies 2.63 log units lower than the previous one.
Under `Cc1cc2[nH]ncc2c2c1CCCCO[C@@H](C)[C@H]1CN(CCO1)c1nc(OC[C@@]34CCCN3C[C@H](F)C4)nc3c(F)c-2ncc13` (single isomer, unassigned) [Example 242] stands 5.94; under `Cc1cc2[nH]ncc2c2c1CCCCO[C@H](C)[C@@H]1CN(CCO1)c1nc(OC[C@@]34CCCN3C[C@H](F)C4)nc3c(F)c-2ncc13` (single isomer, unassigned) [Example 243], 5.35; under `Cc1cc2[nH]ncc2c2c1CCCCO[C@@H](C)[C@@H]1CN(CCO1)c1nc(OC[C@@]34CCCN3C[C@H](F)C4)nc3c(F)c-2ncc13` (single isomer, unassigned) [Example 244], 7.57.
To `Fc1c2ncc3c(nc(OC[C@@]45CCCN4C[C@H](F)C5)nc13)N1CCC[C@@H](C1)c1coc(n1)CCCc1c(Cl)cc3[nH]ncc3c1-2` (single isomer, unassigned) [Example 245] belongs 6.23.
In turn, `C[C@H]1CCOC[C@H]2CN(CCO2)c2nc(OC[C@@]34CCCN3C[C@H](F)C4)nc3c(F)c(ncc23)-c2c(c(Cl)cc3[nH]ncc23)C1` (single isomer, unassigned) [Example 252] gave a pIC50 of 7.55.
`C[C@@H]1CCOC[C@H]2CN(CCO2)c2nc(OC[C@@]34CCCN3C[C@H](F)C4)nc3c(F)c(ncc23)-c2c(c(Cl)cc3[nH]ncc23)C1` (single isomer, unassigned) [Example 253]: the pIC50 is 8.05.
`Fc1c2ncc3c(nc(OC[C@@]45CCCN4C[C@H](F)C5)nc13)N1CCO[C@]3(C1)C[C@@H](C3)OCCCCc1c(Cl)cc3[nH]ncc3c1-2` (single isomer, unassigned) [Example 261] showed a negative logarithm of the IC50 (pIC50) of 8.22.
In turn, `CN1C(=O)COCC[C@H]2CCc3cc4[nH]ncc4c(c32)-c2ncc3c(nc(OC[C@@]45CCCN4C[C@H](F)C5)nc3c2F)N2CCC[C@@H]1C2` (single isomer, unassigned) [Example 278] had a negative-log IC50 (pIC50) of 4.71.
With `CN1C(=O)COCC[C@@H]2CCc3cc4[nH]ncc4c(c32)-c2ncc3c(nc(OC[C@@]45CCCN4C[C@H](F)C5)nc3c2F)N2CCC[C@@H]1C2` (single isomer, unassigned) [Example 279], the pIC50 was 6.48.
In the case of `O=C1N[C@H]2C[C@@H](O)CN(C2)c2nc(OC[C@@]34CCCN3C[C@H](F)C4)nc3c(F)c(ncc23)-c2c(c(Cl)cc3[nH]ncc23)CCCO1` (single isomer, unassigned) [Example 285], the pIC50 is 5.72.
To `CN1C(=O)OCCCc2c(Cl)cc3[nH]ncc3c2-c2ncc3c(nc(OC[C@@]45CCCN4C[C@H](F)C5)nc3c2F)N2C[C@@H](O)C[C@@H]1C2` (single isomer, unassigned) [Example 286] belongs 7.09.
Under `Cc1cc2[nH]ncc2c2c1CCCOC(=O)N[C@]1(C)CCCCN(C1)c1nc(OC[C@@]34CCCN3C[C@H](F)C4)nc3c(F)c-2ncc13` (single isomer, unassigned) [Example 292] stands 8.40; under `Cc1cc2[nH]ncc2c2c1CCCOC(=O)N[C@@]1(C)CCCCN(C1)c1nc(OC[C@@]34CCCN3C[C@H](F)C4)nc3c(F)c-2ncc13` (single isomer, unassigned) [Example 293], 4.30.
The molecule `Fc1c2ncc3c(nc(OC[C@@]45CCCN4C[C@H](F)C5)nc13)N1CCCC[C@@H](C1)c1cnn(n1)CCCc1c(Cl)cc3[nH]ncc3c1-2` (single isomer, unassigned) [Example 295] gave a pIC50 of 5.65.
To `Fc1c2ncc3c(nc(OC[C@@]45CCCN4C[C@H](F)C5)nc13)N1CCCC[C@H](C1)c1cnn(n1)CCCc1c(Cl)cc3[nH]ncc3c1-2` (single isomer, unassigned) [Example 296] belongs 8.40.
Consider `Fc1c2ncc3c(nc(OC[C@@]45CCCN4C[C@H](F)C5)nc13)N1CCOC[C@@H](C1)c1cnn(n1)CCCc1c(Cl)cc3[nH]ncc3c1-2` (single isomer, unassigned) [Example 297], for which the negative logarithm of the IC50 (pIC50) was 5.09.
To `Fc1c2ncc3c(nc(OC[C@@]45CCCN4C[C@H](F)C5)nc13)N1CCOC[C@H](C1)c1cnn(n1)CCCc1c(Cl)cc3[nH]ncc3c1-2` (single isomer, unassigned) [Example 298] belongs 8.15.
For `O=C1N[C@@H]2CCCCN(C2)c2nc(OC[C@@]34CCCN3C[C@H](F)C4)nc3c(F)c(ncc23)-c2c3c(cc4[nH]ncc24)CC[C@H]3CCO1` (single isomer, unassigned) [Example 301], the pIC50 was 8.30.
Under `O=C1N[C@@H]2CCCCN(C2)c2nc(OC[C@@]34CCCN3C[C@H](F)C4)nc3c(F)c(ncc23)-c2c3c(cc4[nH]ncc24)CC[C@@H]3CCO1` (single isomer, unassigned) [Example 302] stands 5.90; under `C[C@@]12COCCN(C1)c1nc(OC[C@H]3CC[C@@H]4COCCN43)nc3c(F)c(ncc13)-c1c(c(Cl)cc3[nH]ncc13)CCCOC(=O)O2` (single isomer, unassigned) [Example 308], 8.22; under `C[C@@]12COCCN(C1)c1nc(OC[C@@H]3CC[C@H]4COCCN43)nc3c(F)c(ncc13)-c1c(c(Cl)cc3[nH]ncc13)CCCOC(=O)O2` (single isomer, unassigned) [Example 309], 8.00.
To `O=C1OCCCc2c(Cl)cc3[nH]ncc3c2-c2ncc3c(nc(OC[C@@]45CCCN4C[C@H](F)C5)nc3c2F)N2CCOC[C@@](CF)(C2)O1` (single isomer, unassigned) [Example 310] belongs 5.64.
Under `O=C1OCCCc2c(Cl)cc3[nH]ncc3c2-c2ncc3c(nc(OC[C@@]45CCCN4C[C@H](F)C5)nc3c2F)N2CCOC[C@](CF)(C2)O1` (single isomer, unassigned) [Example 311] stands 8.30; under `Cc1cc2[nH]ncc2c2c1CCOC(=O)O[C@H]1C[C@@]3(CCCN(C3)c3nc(OC[C@@H]4CCCN4C)nc4c(F)c-2ncc34)C1` (single isomer, unassigned) [Example 325], 7.00.
Molecule `Cc1cc2[nH]ncc2c2c1CCOC(=O)O[C@H]1C[C@]3(CCCN(C3)c3nc(OC[C@@H]4CCCN4C)nc4c(F)c-2ncc34)C1` (single isomer, unassigned) [Example 326] gave a pIC50 of 8.40.
Under `CN(C)CC1(COc2nc3c4cnc(c(F)c4n2)-c2c(c(Cl)cc4[nH]ncc24)CCCOC(=O)O[C@]2(C)COCCN3C2)CC1` (single isomer, unassigned) [Example 331] stands 8.30.
`CN(C)CC1(COc2nc3c4cnc(c(F)c4n2)-c2c(c(Cl)cc4[nH]ncc24)CCCOC(=O)O[C@@]2(C)COCCN3C2)CC1` (single isomer, unassigned) [Example 332]: the pIC50 was 5.49.
Take `CN1CCC[C@H]1COc1nc2c3cnc(c(F)c3n1)-c1c(c(Cl)cc3[nH]ncc13)CCCOC(=O)O[C@@]1(CF)COCCN2C1` (single isomer, unassigned) [Example 337]: the pIC50 is 5.61.

The values are drawn from patent US20260174769A1, “MACROCYCLIC COMPOUNDS AND METHODS OF USE” (AMGEN INC., priority 2022, published 2026).
